Measured values as given in patent publication US9096602B2, “Substituted pyrrolo[2,3-B]pyrazines as ATR kinase inhibitors” (Vertex Pharmaceuticals Incorporated, priority 2011, dated 2015).
Like-named read-outs stand apart in the source and are kept apart here.

Target: T1, ATR kinase (full-length ATR) (Homo sapiens, UniProt Q13535)
T1 construct: Assays were carried out at 25° C. in the presence of 5 nM full-length ATR
Experiment: ATR Inhibition Assay (radioactive-phosphate incorporation)
Format: biochemical
Conditions: Ki(app), 5 nM full-length ATR, 10 μM ATP, 800 μM target peptide, 25° C., read-out: ATR Inhibition Ki
Method: Compounds were screened for their ability to inhibit ATR kinase using a radioactive-phosphate incorporation assay. Assays were carried out in a mixture of 50 mM Tris/HCl (pH 7.5), 10 mM MgCl2 and 1 mM DTT. Final substrate concentrations were 10 μM [y-33P]ATP (3mCi 33P ATP/mmol ATP, Perkin Elmer) and 800 μM target peptide ([…]).
Assays were carried out at 25° C. in the presence of 5 nM full-length ATR. An assay stock buffer solution was prepared containing all of the reagents listed above, with the exception of ATP and the test compound of interest. […] The plate was pre-incubated for 10 minutes at 25° C. and the reaction initiated by addition of 15 μL [y-33P]ATP (final concentration 10 μM).
The reaction was stopped after […] by the addition of 30 μL 0.1M phosphoric acid containing 2 mM ATP. A multiscreen phosphocellulose filter 96-well plate (Millipore, Cat no. MAPHN0B50) was pretreated with 100 μL 0.2M phosphoric acid prior to the addition of 45 μL of the stopped assay mixture. The plate was washed with 5×200 μL 0.2M phosphoric acid.
After removing mean background values for all of the data points, Ki(app) data were calculated from non-linear regression analysis of the initial rate data using the Prism software package (GraphPad Prism version 3.0cx for Macintosh, GraphPad Software, San Diego Calif., USA).

[1] = given as numeric lower bound without unit

T1 sequence (Q13535 whole entry): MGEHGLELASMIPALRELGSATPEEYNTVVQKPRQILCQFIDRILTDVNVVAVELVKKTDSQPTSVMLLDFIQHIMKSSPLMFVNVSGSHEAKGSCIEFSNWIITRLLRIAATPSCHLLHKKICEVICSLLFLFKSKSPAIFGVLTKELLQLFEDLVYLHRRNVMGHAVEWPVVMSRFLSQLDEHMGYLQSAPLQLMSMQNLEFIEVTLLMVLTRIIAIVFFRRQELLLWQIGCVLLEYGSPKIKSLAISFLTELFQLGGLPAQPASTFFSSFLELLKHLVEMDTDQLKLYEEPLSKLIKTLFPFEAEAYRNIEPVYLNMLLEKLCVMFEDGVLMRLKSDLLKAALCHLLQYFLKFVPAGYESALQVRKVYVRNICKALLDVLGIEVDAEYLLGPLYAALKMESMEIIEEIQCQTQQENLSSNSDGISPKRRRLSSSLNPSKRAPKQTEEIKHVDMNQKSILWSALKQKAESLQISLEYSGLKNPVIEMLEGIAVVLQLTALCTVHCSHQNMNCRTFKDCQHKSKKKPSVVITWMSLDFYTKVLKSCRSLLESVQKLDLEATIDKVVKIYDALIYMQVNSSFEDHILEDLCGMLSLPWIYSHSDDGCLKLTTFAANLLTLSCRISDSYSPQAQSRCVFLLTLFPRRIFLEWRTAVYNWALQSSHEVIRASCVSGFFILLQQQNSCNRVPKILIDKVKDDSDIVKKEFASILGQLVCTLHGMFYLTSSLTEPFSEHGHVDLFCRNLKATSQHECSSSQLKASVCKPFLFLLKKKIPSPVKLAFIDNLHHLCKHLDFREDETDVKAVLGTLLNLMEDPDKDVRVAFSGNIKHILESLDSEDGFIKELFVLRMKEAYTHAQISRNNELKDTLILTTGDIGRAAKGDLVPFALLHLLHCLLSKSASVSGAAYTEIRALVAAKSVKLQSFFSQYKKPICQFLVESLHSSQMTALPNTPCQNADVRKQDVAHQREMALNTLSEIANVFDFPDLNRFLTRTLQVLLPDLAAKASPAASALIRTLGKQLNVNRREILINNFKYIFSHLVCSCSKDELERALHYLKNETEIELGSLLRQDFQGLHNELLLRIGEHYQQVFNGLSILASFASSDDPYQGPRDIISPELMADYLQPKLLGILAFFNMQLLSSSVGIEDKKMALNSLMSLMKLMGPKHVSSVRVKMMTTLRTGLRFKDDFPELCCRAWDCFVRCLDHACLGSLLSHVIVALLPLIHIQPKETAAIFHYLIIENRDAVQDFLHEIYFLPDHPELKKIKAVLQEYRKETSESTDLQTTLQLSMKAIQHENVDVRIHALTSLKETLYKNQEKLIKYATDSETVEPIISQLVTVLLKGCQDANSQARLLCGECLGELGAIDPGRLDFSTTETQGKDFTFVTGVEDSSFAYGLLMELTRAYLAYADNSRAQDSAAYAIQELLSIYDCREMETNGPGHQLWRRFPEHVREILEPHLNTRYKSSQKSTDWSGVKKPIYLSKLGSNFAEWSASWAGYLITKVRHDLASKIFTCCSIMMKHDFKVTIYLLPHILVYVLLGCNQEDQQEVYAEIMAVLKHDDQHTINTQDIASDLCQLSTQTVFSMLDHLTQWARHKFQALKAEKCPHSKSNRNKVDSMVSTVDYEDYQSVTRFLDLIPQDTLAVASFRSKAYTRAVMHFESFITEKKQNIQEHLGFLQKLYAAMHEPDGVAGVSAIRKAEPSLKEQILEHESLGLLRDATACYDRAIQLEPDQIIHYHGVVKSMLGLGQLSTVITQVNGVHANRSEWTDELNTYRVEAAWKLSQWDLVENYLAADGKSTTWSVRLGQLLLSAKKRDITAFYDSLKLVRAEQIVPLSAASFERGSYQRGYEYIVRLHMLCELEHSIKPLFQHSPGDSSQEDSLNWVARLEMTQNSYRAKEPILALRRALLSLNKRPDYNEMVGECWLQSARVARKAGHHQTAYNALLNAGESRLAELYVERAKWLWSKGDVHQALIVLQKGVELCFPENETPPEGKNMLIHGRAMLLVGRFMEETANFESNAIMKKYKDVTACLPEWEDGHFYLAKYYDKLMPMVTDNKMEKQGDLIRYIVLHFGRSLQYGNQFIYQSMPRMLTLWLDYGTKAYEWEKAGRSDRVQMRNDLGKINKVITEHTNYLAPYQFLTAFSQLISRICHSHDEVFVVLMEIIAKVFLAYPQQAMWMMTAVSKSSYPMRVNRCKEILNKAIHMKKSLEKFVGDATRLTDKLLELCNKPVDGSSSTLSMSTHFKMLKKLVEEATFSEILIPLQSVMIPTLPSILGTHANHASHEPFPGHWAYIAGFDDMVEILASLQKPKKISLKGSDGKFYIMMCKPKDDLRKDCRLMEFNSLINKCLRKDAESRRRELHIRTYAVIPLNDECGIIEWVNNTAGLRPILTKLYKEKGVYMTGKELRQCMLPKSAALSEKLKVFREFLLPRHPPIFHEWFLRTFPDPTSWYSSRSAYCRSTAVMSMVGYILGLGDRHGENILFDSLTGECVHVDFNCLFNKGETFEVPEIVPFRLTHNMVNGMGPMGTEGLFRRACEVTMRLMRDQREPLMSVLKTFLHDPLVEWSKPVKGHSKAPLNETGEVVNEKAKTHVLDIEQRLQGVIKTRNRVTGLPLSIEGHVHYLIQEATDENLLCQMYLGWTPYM

Row | Compound | Ki (class symbols) | Ki [1]
1 | CC(C)S(=O)(=O)c1ccc(-c2cnc3[nH]cc(C(=O)NC(CO)c4ccccc4)c3n2)cc1 (stereo not shown) [Compound I-42, N-(2-hydroxy-1-phenyl-ethyl)-2-(4-isopropylsulfonylphenyl)-5H-pyrrolo[2,3-b]pyrazine-7-carboxamide] | < 100 nM | 
2 | CC(C)S(=O)(=O)c1ccc(-c2cnc3[nH]cc(C(=O)Nc4noc5ccccc45)c3n2)cc1 [Compound I-43, N-(1,2-benzoxazol-3-yl)-2-(4-isopropylsulfonylphenyl)-5H-pyrrolo[2,3-b]pyrazine-7-carboxamide] | < 100 nM | 
3 | CC(C)S(=O)(=O)c1ccc(-c2cnc3[nH]cc(C(=O)NC4(CO)CCCC4)c3n2)cc1 [Compound I-44, N-[1-(hydroxymethyl)cyclopentyl]-2-(4-isopropylsulfonylphenyl)-5H-pyrrolo[2,3-b]pyrazine-7-carboxamide] | 100 to 500 nM | 
4 | CC(C)S(=O)(=O)c1ccc(-c2cnc3[nH]cc(C(=O)N[C@H](C)c4ccccc4)c3n2)cc1 [Compound I-45, 2-(4-isopropylsulfonylphenyl)-N-[(1R)-1-phenylethyl]-5H-pyrrolo[2,3-b]pyrazine-7-carboxamide] | < 100 nM | 
5 | CC(C)S(=O)(=O)c1ccc(-c2cnc3[nH]cc(C(=O)NCc4cccc(Cl)c4)c3n2)cc1 [Compound I-46, N-[(3-chlorophenyl)methyl]-2-(4-isopropylsulfonylphenyl)-5H-pyrrolo[2,3-b]pyrazine-7-carboxamide] |  | > 250 nM
6 | CC(C)S(=O)(=O)c1ccc(-c2cnc3[nH]cc(C(=O)Nc4ccc(C(N)=O)cc4)c3n2)cc1 [Compound I-47, N-(4-carbamoylphenyl)-2-(4-isopropylsulfonylphenyl)-5H-pyrrolo[2,3-b]pyrazine-7-carboxamide] |  | > 250 nM
7 | CC(C)S(=O)(=O)c1ccc(-c2cnc3[nH]cc(C(=O)NCc4ccccc4Cl)c3n2)cc1 [Compound I-48, N-[(2-chlorophenyl)methyl]-2-(4-isopropylsulfonylphenyl)-5H-pyrrolo[2,3-b]pyrazine-7-carboxamide] | < 100 nM | 
8 | CC(C)S(=O)(=O)c1ccc(-c2cnc3[nH]cc(C(=O)NCc4ccc(N(C)C)cc4)c3n2)cc1 [Compound I-49, N-[(4-dimethylaminophenyl)methyl]-2-(4-isopropylsulfonylphenyl)-5H-pyrrolo[2,3-b]pyrazine-7-carboxamide] | < 100 nM | 
9 | CC(C)S(=O)(=O)c1ccc(-c2cnc3[nH]cc(C(=O)Nc4ccccc4CCO)c3n2)cc1 [Compound I-50, N-[2-(2-hydroxyethyl)phenyl]-2-(4-isopropylsulfonylphenyl)-5H-pyrrolo[2,3-b]pyrazine-7-carboxamide] | 100 to 500 nM | 
10 | CC(C)S(=O)(=O)c1ccc(-c2cnc3[nH]cc(C(=O)N[C@@H](CCO)c4ccccc4)c3n2)cc1 [Compound I-51, N-[(1S)-3-hydroxy-1-phenyl-propyl]-2-(4-isopropylsulfonylphenyl)-5H-pyrrolo[2,3-b]pyrazine-7-carboxamide] | 500 to 5000 nM | 
11 | CC(C)S(=O)(=O)c1ccc(-c2cnc3[nH]cc(C(=O)NCc4ccccn4)c3n2)cc1 [Compound I-52, 2-(4-isopropylsulfonylphenyl)-N-(2-pyridylmethyl)-5H-pyrrolo[2,3-b]pyrazine-7-carboxamide] | 100 to 500 nM | 
12 | CC(C)S(=O)(=O)c1ccc(-c2cnc3[nH]cc(C(=O)NC4CCc5ccccc54)c3n2)cc1 (stereo not shown) [Compound I-53, N-indan-1-yl-2-(4-isopropylsulfonylphenyl)-5H-pyrrolo[2,3-b]pyrazine-7-carboxamide] | < 100 nM | 
13 | Cc1cccc(Cl)c1CNC(=O)c1c[nH]c2ncc(-c3ccc(S(=O)(=O)C(C)C)cc3)nc12 [Compound I-54, N-[(2-chloro-6-methyl-phenyl)methyl]-2-(4-isopropylsulfonylphenyl)-5H-pyrrolo[2,3-b]pyrazine-7-carboxamide] | < 100 nM | 
14 | Cc1cc(NC(=O)c2c[nH]c3ncc(-c4ccc(S(=O)(=O)C(C)C)cc4)nc23)[nH]n1 [Compound I-55, 2-(4-isopropylsulfonylphenyl)-N-(3-methyl-1H-pyrazol-5-yl)-5H-pyrrolo[2,3-b]pyrazine-7-carboxamide] | < 100 nM | 
15 | CC(C)S(=O)(=O)c1ccc(-c2cnc3[nH]cc(C(=O)N[C@@H](CO)c4ccccc4)c3n2)cc1 [Compound I-56, N-[(1R)-2-hydroxy-1-phenyl-ethyl]-2-(4-isopropylsulfonylphenyl)-5H-pyrrolo[2,3-b]pyrazine-7-carboxamide] | 100 to 500 nM | 
16 | CC(C)S(=O)(=O)c1ccc(-c2cnc3[nH]cc(C(=O)NCc4ccc(N)cc4)c3n2)cc1 [Compound I-57, N-[(4-aminophenyl)methyl]-2-(4-isopropylsulfonylphenyl)-5H-pyrrolo[2,3-b]pyrazine-7-carboxamide] | < 100 nM | 

Row | Compound | Ki (class symbols) | Ki [1]
17 | COC[C@H](NC(=O)c1c[nH]c2ncc(-c3ccc(S(=O)(=O)C(C)C)cc3)nc12)c1ccccc1 [Compound I-58, 2-(4-isopropylsulfonylphenyl)-N-[(1R)-2-methoxy-1-phenyl-ethyl]-5H-pyrrolo[2,3-b]pyrazine-7-carboxamide] | 500 to 5000 nM | 
18 | CC(C)S(=O)(=O)c1ccc(-c2cnc3[nH]cc(C(=O)NCc4cccnc4)c3n2)cc1 [Compound I-59, 2-(4-isopropylsulfonylphenyl)-N-(3-pyridylmethyl)-5H-pyrrolo[2,3-b]pyrazine-7-carboxamide] | 100 to 500 nM | 
19 | CC(C)S(=O)(=O)c1ccc(-c2cnc3[nH]cc(C(=O)NCc4ccncc4)c3n2)cc1 [Compound I-60, 2-(4-isopropylsulfonylphenyl)-N-(4-pyridylmethyl)-5H-pyrrolo[2,3-b]pyrazine-7-carboxamide] | 100 to 500 nM | 
20 | CC(C)S(=O)(=O)c1ccc(-c2cnc3[nH]cc(C(=O)NCCc4ccccn4)c3n2)cc1 [Compound I-61, 2-(4-isopropylsulfonylphenyl)-N-[2-(2-pyridyl)ethyl]-5H-pyrrolo[2,3-b]pyrazine-7-carboxamide] | < 100 nM | 
21 | CC(C)S(=O)(=O)c1ccc(-c2cnc3[nH]cc(C(=O)NC[C@@H](O)c4ccccc4)c3n2)cc1 [Compound I-62, N-[(2S)-2-hydroxy-2-phenyl-ethyl]-2-(4-isopropylsulfonylphenyl)-5H-pyrrolo[2,3-b]pyrazine-7-carboxamide] | < 100 nM | 
22 | CC(C)S(=O)(=O)c1ccc(-c2cnc3[nH]cc(C(=O)NCC4CCCO4)c3n2)cc1 (stereo not shown) [Compound I-63, 2-(4-isopropylsulfonylphenyl)-N-(tetrahydrofuran-2-ylmethyl)-5H-pyrrolo[2,3-b]pyrazine-7-carboxamide] | < 100 nM | 
23 | Cc1ccc(NC(=O)c2c[nH]c3ncc(-c4ccc(S(=O)(=O)C(C)C)cc4)nc23)cc1F [Compound I-64, N-(3-fluoro-4-methyl-phenyl)-2-(4-isopropylsulfonylphenyl)-5H-pyrrolo[2,3-b]pyrazine-7-carboxamide] | < 100 nM | 
24 | CC(C)S(=O)(=O)c1ccc(-c2cnc3[nH]cc(C(=O)N[C@@H]4c5ccccc5C[C@@H]4O)c3n2)cc1 [Compound I-65, N-[(1R,2S)-2-hydroxyindan-1-yl]-2-(4-isopropylsulfonylphenyl)-5H-pyrrolo[2,3-b]pyrazine-7-carboxamide] | 500 to 5000 nM | 
25 | Cc1cccc(CNC(=O)c2c[nH]c3ncc(-c4ccc(S(=O)(=O)C(C)C)cc4)nc23)c1Cl [Compound I-66, N-[(2-chloro-3-methyl-phenyl)methyl]-2-(4-isopropylsulfonylphenyl)-5H-pyrrolo[2,3-b]pyrazine-7-carboxamide] | < 100 nM | 
26 | Cc1ccc(Cl)cc1CNC(=O)c1c[nH]c2ncc(-c3ccc(S(=O)(=O)C(C)C)cc3)nc12 [Compound I-67, N-[(5-chloro-2-methyl-phenyl)methyl]-2-(4-isopropylsulfonylphenyl)-5H-pyrrolo[2,3-b]pyrazine-7-carboxamide] | < 100 nM | 
27 | Cc1cccc(CNC(=O)c2c[nH]c3ncc(-c4ccc(S(=O)(=O)C(C)C)cc4)nc23)c1C [Compound I-68, N-[(2,3-dimethylphenyl)methyl]-2-(4-isopropylsulfonylphenyl)-5H-pyrrolo[2,3-b]pyrazine-7-carboxamide] | < 100 nM | 
28 | CC(C)S(=O)(=O)c1ccc(-c2cnc3[nH]cc(C(=O)N[C@H]4c5ccccc5C[C@H]4O)c3n2)cc1 [Compound I-69, N-[(1S,2R)-2-hydroxyindan-1-yl]-2-(4-isopropylsulfonylphenyl)-5H-pyrrolo[2,3-b]pyrazine-7-carboxamide] | < 100 nM | 
29 | Cc1ccc(NC(=O)c2c[nH]c3ncc(-c4ccc(S(=O)(=O)C(C)C)cc4)nc23)cc1 [Compound I-70, 2-(4-isopropylsulfonylphenyl)-N-(p-tolyl)-5H-pyrrolo[2,3-b]pyrazine-7-carboxamide] | 100 to 500 nM | 
30 | CC(C)S(=O)(=O)c1ccc(-c2cnc3[nH]cc(C(=O)N[C@@H](C)c4ccccc4F)c3n2)cc1 [Compound I-71, N-[(1S)-1-(2-fluorophenyl)ethyl]-2-(4-isopropylsulfonylphenyl)-5H-pyrrolo[2,3-b]pyrazine-7-carboxamide] | 100 to 500 nM | 
31 | CC(C)S(=O)(=O)c1ccc(-c2cnc3[nH]cc(C(=O)Nc4ccc(F)cc4)c3n2)cc1 [Compound I-72, N-(4-fluorophenyl)-2-(4-isopropylsulfonylphenyl)-5H-pyrrolo[2,3-b]pyrazine-7-carboxamide] | 100 to 500 nM | 
